Activity calls are given as the source filed them. The rule behind the calls is not given here.
Columns and labels:
NCM460 = experiment: Cytotoxicity against human NCM460 cells harboring wild-type KRAS assessed as cell growth inhibition incubated for 24 hrs by MTT assay; assay type: functional, cell-based; conditions: NCM460, 24 h
MIA PaCa-2 [1] = experiment: Cytotoxicity against human MIA PaCa-2 cells harboring KRAS G12C mutant assessed as cell growth inhibition incubated for 24 hrs by MTT assay; assay type: functional, cell-based; conditions: MIA PaCa-2, 24 h
[2] = molecular target: GTPase KRas (Homo sapiens) (UniProt P01116); experiment: Inhibition of KRAS in human MIA PaCa-2 cells at 2.5 uM incubated for 24 hrs by Western blot analysis; assay type: cell-based
[3] = molecular target: GTPase KRas (Homo sapiens) (UniProt P01116); experiment: Inhibition of KRAS in human PANC-1 cells at 2.5 uM incubated for 24 hrs by Western blot analysis; assay type: cell-based
PANC-1 = experiment: Cytotoxicity against human PANC-1 cells harboring KRAS G12D mutant assessed as cell growth inhibition incubated for 24 hrs by MTT assay; assay type: functional, cell-based; conditions: PANC-1, 24 h
[4] = Cytotoxicity against human PANC-1 cells […] assessed as cell growth inhibition incubated for 24 hrs by MTT assay; assay type: functional, cell-based; conditions: PANC-1, 24 h
U-87 MG = experiment: Cytotoxicity against human U-87 MG cells harboring wild-type KRAS assessed as cell growth inhibition incubated for 24 hrs by MTT assay; assay type: functional, cell-based, U-87MG ATCC
[5] = Cytotoxicity against human HFL1 cells harboring wild-type KRAS assessed as cell growth inhibition incubated for 24 hrs by MTT assay; assay type: toxicity, cell-based
SW-620 = experiment: Cytotoxicity against human SW620 cells harboring KRAS G12V mutant assessed as cell growth inhibition incubated for 24 hrs by MTT assay; assay type: functional, cell-based; conditions: SW-620, 24 h
[6] = molecular target: GTPase KRas (Homo sapiens) (UniProt P01116); experiment: Inhibition of KRAS in human MIA PaCa-2 cells at >5 uM incubated for 24 hrs by Western blot analysis; assay type: cell-based
HCT-116 = experiment: Cytotoxicity against human HCT-116 cells harboring KRAS G13D mutant assessed as cell growth inhibition incubated for 24 hrs by MTT assay; assay type: functional, cell-based; conditions: HCT-116, 24 h
HPAF-II = experiment: Cytotoxicity against human HPAF-II cells harboring KRAS G12D mutant assessed as cell growth inhibition incubated for 24 hrs by MTT assay; assay type: functional, cell-based
NCI-H358 = experiment: Cytotoxicity against human NCI-H358 cells harboring KRAS G12C mutant assessed as cell growth inhibition incubated for 24 hrs by MTT assay; assay type: functional, cell-based; conditions: NCI-H358, 24 h
[7] = molecular target: GTPase KRas (Homo sapiens) (UniProt P01116); experiment: Inhibition of KRAS in human PANC-1 cells at >5 uM incubated for 24 hrs by Western blot analysis; assay type: cell-based
[8] = Cytotoxicity against human LX2 cells harboring wild-type KRAS assessed as cell growth inhibition incubated for 24 hrs by MTT assay; assay type: toxicity, cell-based, LX-2
MIA PaCa-2 [9] = experiment: In vivo inhibition of KRAS in human MIA PaCa-2 cells xenografted in BALB/C-nu/nu mouse model at 2.5 mg/kg,ip everyday for 18 days by IHC analysis; assay type: functional, organism-based; conditions: time 18.0 day

GTPase KRas (Homo sapiens), sequence (P01116 whole entry, looked up): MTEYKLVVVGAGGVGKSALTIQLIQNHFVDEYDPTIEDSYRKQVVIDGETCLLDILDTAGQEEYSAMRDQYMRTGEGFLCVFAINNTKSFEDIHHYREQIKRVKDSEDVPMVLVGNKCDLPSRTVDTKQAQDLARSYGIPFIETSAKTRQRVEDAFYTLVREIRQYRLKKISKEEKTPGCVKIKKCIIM

Structure (SMILES) | IC50 (NCM460) [µM] | IC50 (MIA PaCa-2 [1]) [µM] | inhibition [2] | inhibition [3] | IC50 (PANC-1) [µM] | IC50 [4] [µM] | IC50 (U-87 MG) [µM] | IC50 at 24 h [5] [µM] | IC50 (SW-620) [µM] | inhibition [6] | IC50 (HCT-116) [µM] | IC50 (HPAF-II) [µM] | IC50 (NCI-H358) [µM] | inhibition [7] | IC50 at 24 h [8] [µM] | Activity (MIA PaCa-2 [9])
CCN(CC)c1ccc2cc(/C=C/c3ccc4cc(F)c(NCCCN5CCOCC5)cc4[n+]3C)c(=O)oc2c1 | > 40 | 4.2 | Active | Active | 6 | > 40 |  |  |  |  |  |  |  |  |  | 
CCN(CC)c1ccc2cc(/C=C/c3ccc4cc(F)c(NCCN5CCCCC5)cc4[n+]3C)c(=O)oc2c1 | > 40 | 43 | Active | Active | 5.8 | > 40 |  |  |  |  |  |  |  |  |  | 
CCN(CC)c1ccc2cc(/C=C/c3ccc4cc(F)c(NCCCN5CCCC5)cc4[n+]3C)c(=O)oc2c1 | > 40 | 7.8 | Active | Active | 11.8 | > 40 |  |  |  |  |  |  |  |  |  | 
CCN(CC)CCCNc1cc2c(ccc(/C=C/c3cc4ccc(N(CC)CC)cc4oc3=O)[n+]2C)cc1F | > 40 | 7.7 | Active | Active | 7.2 | > 40 |  |  |  |  |  |  |  |  |  | 
CCN(CC)c1ccc2cc(/C=C/c3ccc4cc(F)c(NCCCN(C)C)cc4[n+]3C)c(=O)oc2c1 | > 40 | 8.6 | Active | Active | 9 | > 40 |  |  |  |  |  |  |  |  |  | 
CCN(CC)c1ccc2cc(/C=C/c3ccc4cc(F)c(N5CCN(C)CC5)cc4[n+]3C)c(=O)oc2c1 | > 40 | 10.8 |  |  | 14.7 | > 40 | > 40 | > 40 | 18.6 | Active | 19.1 | 32.1 | 11.9 | Active | > 40 | 
C=CC(=O)N1CCN(c2nc(=O)n(-c3c(C)ccnc3C(C)C)c3nc(-c4c(O)cccc4F)c(F)cc23)[C@@H](C)C1 [SOTORASIB] | > 40 | > 40 |  |  | > 40 | > 40 |  |  |  |  |  |  |  |  |  | inactive
